Experimental findings from ChEMBL document CHEMBL1147362, “Cytotoxicity of Hymenocallis expansa alkaloids” (1993) are described below.

Holding throughout (assay type): functional
Assay [1] can be described thus: Cytotoxicity against human KBV1 cells after 3 days by sulforhodamine B assay. The conditions noted are these: KB-V1, 72 h, read-out: ED50 (the source's name). (The SRB assay estimates cell density from bound dye.)
In another assay the test system is KB. Put plainly: Cytotoxicity against human KB cells after 3 days by sulforhodamine B assay. The conditions noted are these: 72 h, read-out: ED50 (the source's name).
The test system of another assay is Lu1. In words: Cytotoxicity against human Lu1 cells after 3 days by sulforhodamine B assay. The conditions noted are these: Lu1, 72 h, read-out: ED50 (the source's name).
A further assay relates to Col2. In words: Cytotoxicity against human Col2 cells after 3 days by sulforhodamine B assay. The conditions noted are these: Col2, 72 h, read-out: ED50 (the source's name).
Assay [2] can be described thus: Cytotoxicity against human BC1 cells after 3 days by sulforhodamine B assay. The conditions noted are these: BC1, 72 h, read-out: ED50 (the source's name).
A further assay has as its system P388. In words: Cytotoxicity against mouse P388 cells after 3 days by sulforhodamine B assay. The conditions noted are these: P388, 72 h, read-out: ED50 (the source's name).
The next assay concerns SK-MEL-2. Put plainly: Cytotoxicity against human SK-MEL-2 cells after 3 days by sulforhodamine B assay. The conditions noted are these: SK-MEL-2, 72 h, read-out: ED50 (the source's name).
The next assay has as its system ZR-75-1. Put plainly: Cytotoxicity against human ZR-75-1 cells after 3 days by sulforhodamine B assay. The conditions noted are these: ZR-75-1, 72 h, read-out: ED50 (the source's name).
The next assay deals with HT. Put plainly: Cytotoxicity against human HT cells after 3 days by sulforhodamine B assay. The conditions noted are these: 72 h, read-out: ED50 (the source's name).
The next assay deals with LNCaP. In words: Cytotoxicity against human LNCAP cells after 3 days by sulforhodamine B assay. The conditions noted are these: 72 h, read-out: ED50 (the source's name).
The next assay has as its system A-431. In words: Cytotoxicity against human A431 cells after 3 days by sulforhodamine B assay. The conditions noted are these: A-431, 72 h, read-out: ED50 (the source's name).

SMILES strings stand for the structures. ≈ marks a conversion by molar mass, not a printed value.

Consider `CN1CCC2=C[C@H](O)[C@H]3OC(=O)c4cc5c(cc4[C@H]3[C@@H]21)OCO5`, for which the EC50 was more than 20 µg/mL in assay [1]; more than 20 µg/mL in the assay with KB; 5.2 µg/mL (≈ 16.5 µM) in the assay with Lu1; 7.8 µg/mL (≈ 24.7 µM) in the assay with Col2; more than 20 µg/mL in assay [2]; 4 µg/mL (≈ 12.7 µM) in the assay on P388. For the same molecule, the EC50 was more than 20 µg/mL in the assay with SK-MEL-2; 7.3 µg/mL (≈ 23.2 µM) with ZR-75-1; 4.7 µg/mL (≈ 14.9 µM) in the assay on HT; 1.8 µg/mL (≈ 5.71 µM) in the assay with LNCaP; 6.3 µg/mL (≈ 20 µM) in the assay with A-431.
Turning to `CO[C@@H]1C=C[C@@]23c4cc5c(cc4[C@H](O)N(C[C@@H]2O)[C@H]3C1)OCO5`, the EC50 is 8.4 µg/mL (≈ 26.5 µM) in [1]; 3.6 µg/mL (≈ 11.3 µM) in the assay with KB; 2.1 µg/mL (≈ 6.62 µM) with Lu1; 6 µg/mL (≈ 18.9 µM) in the assay on Col2; more than 20 µg/mL in assay [2]; 0.4 µg/mL (≈ 1.26 µM) in the assay with P388. Besides, the EC50 in the assay with SK-MEL-2 worked out at 1.9 µg/mL (≈ 5.99 µM); in the assay on ZR-75-1, 2.6 µg/mL (≈ 8.19 µM); in the assay on HT, 1.6 µg/mL (≈ 5.04 µM); in the assay with LNCaP, 0.7 µg/mL (≈ 2.21 µM); with A-431, 3 µg/mL (≈ 9.45 µM).
Turning to `CO[C@@H]1C=C[C@@]23c4cc5c(cc4CO[C@]2(O)CN(C)[C@H]3C1)OCO5` [TAZETTINE], the EC50 in assay [1] was more than 20 µg/mL; in the assay on KB, 7.3 µg/mL (≈ 22 µM); in the assay with Lu1 it was 11.1 µg/mL (≈ 33.5 µM); in the assay on Col2 it was 5 µg/mL (≈ 15.1 µM); in assay [2] it was more than 20 µg/mL; in the assay with P388, 1 µg/mL (≈ 3.02 µM). Further, the EC50 is 12.9 µg/mL (≈ 38.9 µM) in the assay with SK-MEL-2; 6.9 µg/mL (≈ 20.8 µM) with ZR-75-1; 11.8 µg/mL (≈ 35.6 µM) with HT; 5.9 µg/mL (≈ 17.8 µM) with LNCaP; 11.1 µg/mL (≈ 33.5 µM) in the assay with A-431.
